Consider ten compounds from patent publication US20250009742A1 (priority 2021, published 2025).

Series [1] deals with Protein (Hepatitis B virus genotype D subtype ayw, UniProt P03146). The series can be described thus: Protein inhibition rate / EC50 (Table 1, no method described). It is filed as biochemical.
A short description of series [2]: Cell viability assay (EZ-Cytox), cytotoxicity. It is filed as cell-based. The settings on record: human, HepAD38 cells; for viability at 65 h, 100 µM: read-out: Cytotoxicity % Livability (@100 μM). How it is done: HepAD38 cells were cultured for 2 days in Dulbecco's Modified Eagle's medium (Welgene, LM001-05) supplemented with 10% FBS without tetracycline. […] After 65 hours of treatment, viability was measured using EZ-Cytox cell viability assay kit (Daeil Lab Service) according to the manufacturer's instructions. The absorbance was measured at 450 nm using a spectrophotometer (Spark, Tecan).

Series [3] relates to intracellular HBV DNA. Briefly: Real-time PCR for intracellular HBV DNA in HepAD38 cells. It is filed as cell-based. Conditions: 65 hours treatment.
[4] abbreviates: Hepatitis B virus, HePAD38, 65 h.

Read-outs that look alike come from different tables or passages of the source. Bounds are passed on as bounds.

Sequence of Protein (P03146 whole entry): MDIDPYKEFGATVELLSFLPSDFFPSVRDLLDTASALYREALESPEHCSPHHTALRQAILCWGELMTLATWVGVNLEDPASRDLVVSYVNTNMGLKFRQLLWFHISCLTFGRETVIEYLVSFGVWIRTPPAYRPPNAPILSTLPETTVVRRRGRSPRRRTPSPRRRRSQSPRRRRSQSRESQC

On to `COc1ccc(N(Cc2n[nH]c3c2C2CCC3C2)C(=O)Nc2ccc(F)c(Cl)c2)cn1` (centres unmarked) [Example 51, 3-(3-chloro-4-fluorophenyl)-1-(6-methoxypyridin-3-yl)-1-((4,5,6,7-tetrahydro-1H-4,7-methanoindazol-3-yl)methyl)urea], for which, in series [1], the EC50 (commonly the concentration giving half of the maximal effect) stood at 3.4 µM and at 30 µM the inhibition was 87.1%. Moreover, in series [2], the 50% cytotoxic concentration (CC50) (as a rule, the concentration that lowers cell viability or growth by half) at 65 h is greater than 50 µM and the viability at 65 h, 100 µM was 36.7%. In series [3] (setting [4]), the IC50 – broadly, the concentration at which inhibition is half-maximal – was determined as 0.035 µM.
Consider `COc1cc(OC)cc(N(Cc2n[nH]c3c2CCCC3)C(=O)Nc2ccc(F)c(Cl)c2)c1` [Example 117, 3-(3-chloro-4-fluorophenyl)-1-(3,5-dimethoxyphenyl)-1-((4,5,6,7-tetrahydro-1H-indazol-3-yl)methyl)urea], for which the inhibition – broadly, the change of the read-out against control, counted positive when it falls – at 30 µM in series [1] worked out at 7%. In series [2], the CC50 at 65 h was greater than 33 µM and the viability at 65 h, 100 µM worked out at 3.2%. This compound also gave an IC50 in series [3] (setting [4]) greater than 1.1 µM.
In series [1], `COc1ccc(N(Cc2cc(C)nn2C)C(=O)Nc2ccc(F)c(Cl)c2)cc1` [Example 108, 3-(3-chloro-4-fluorophenyl)-1-((1,3-dimethyl-1H-pyrazol-5-yl)methyl)-1-(4-methoxyphenyl)urea] registered an EC50 of 5.3 µM and an inhibition at 30 µM of 89.9%. This compound registered an IC50 in series [3] (setting [4]) of 0.36 µM.
In series [1], `COc1ccc(N(Cc2n[nH]c3c2CCC3)C(=O)Nc2ccc(F)c(Cl)c2)cc1` [Example 46, 3-(3-chloro-4-fluorophenyl)-1-(4-methoxyphenyl)-1-((1,4,5,6-tetrahydrocyclopenta[c]pyrazol-3-yl)methyl)urea] showed a 50% effective concentration (EC50) of 4.3 µM and an inhibition at 30 µM of 92.8%. In series [2], the CC50 at 65 h is greater than 100 µM and the viability at 65 h, 100 µM was 100%. Moreover, the IC50 in series [3] (setting [4]) was determined as 0.0094 µM.
As to `Cn1cc(N(Cc2n[nH]c3c2CCC3)C(=O)Nc2ccc(F)c(Cl)c2)ccc1=O` [Example 65, 3-(3-chloro-4-fluorophenyl)-1-(1-methyl-6-oxo-1,6-dihydropyridin-3-yl)-1-((1,4,5,6-tetrahydrocyclopenta[c]pyrazol-3-yl)methyl)urea], in series [1], the EC50 was greater than 30 µM and 30 µM produced 53.5% inhibition. In series [2], the CC50 at 65 h was greater than 100 µM and the viability at 65 h, 100 µM turned out to be 112%. Also, the IC50 in series [3] (setting [4]) is greater than 1.1 µM.
Compound `COc1ccc(N(Cc2n[nH]c3c2CS(=O)(=O)CC3)C(=O)Nc2ccc(F)c(Cl)c2)cn1` [Example 49, 3-(3-chloro-4-fluorophenyl)-1-((5,5-dioxido-1,4,6,7-tetrahydrothiopyrano[4,3-c]pyrazol-3-yl)methyl)-1-(6-methoxypyridin-3-yl)urea] returned an inhibition at 30 µM in series [1] of 72%. This compound had a CC50 at 65 h in series [2] greater than 100 µM. In series [3] (setting [4]), this compound returned a half-maximal inhibitory concentration (IC50) greater than 1.1 µM.
`COc1ccc(N(Cc2cn(C)nc2C)C(=O)Nc2ccc(F)c(Cl)c2)cc1` [Example 159, 3-(3-chloro-4-fluorophenyl)-1-((1,3-dimethyl-1H-pyrazol-4-yl)methyl)-1-(4-methoxyphenyl)urea]: testing at 30 µM in series [1] gave an inhibition of 4%. The compound also gave an IC50 in series [3] (setting [4]) greater than 3.3 µM.
In series [1], `O=C(Nc1cc(F)c(F)c(F)c1)c1ccc(F)c(S(=O)(=O)N2CCC(O)CC2)c1` [NVR, reference compound] yielded an EC50 of 3.6 µM. Further, the IC50 in series [3] (read-out: IC50) came to 0.34 µM.
On to `COc1ncc(N(Cc2cc(C(F)(F)F)[nH]n2)C(=O)Nc2cc(C(F)F)c(F)cn2)cn1` [Example 192, 3-(4-(difluoromethyl)-5-fluoropyridin-2-yl)-1-(2-methoxypyrimidin-5-yl)-1-((5-(trifluoromethyl)-1H-pyrazol-3-yl)methyl)urea], for which, in series [2], the CC50 at 65 h is greater than 100 µM and the viability at 65 h, 100 µM amounted to 104%. The compound also returned an IC50 in series [3] (setting [4]) of 0.059 µM.
On the same counts, the results for `COC12CC(N(Cc3cc(C(F)(F)F)[nH]n3)C(=O)Nc3cc(F)c(F)c(F)c3)(C1)C2` [Example 222, 1-(3-methoxybicyclo[1.1.1]pentan-1-yl)-1-((5-(trifluoromethyl)-1H-pyrazol-3-yl)methyl)-3-(3,4,5-trifluorophenyl)urea] are 31.7 µM, 2.5% and 0.12 µM.
